# Results taken from ChEMBL document CHEMBL1129210, “Epidermal growth factor receptor tyrosine kinase: Structure-activity relationships and antitumour activity of novel quinazolines” (Bioorg Med Chem Lett, 1997).
# Target: Epidermal growth factor receptor (Homo sapiens, UniProt P00533)
# Assay: Tested for inhibition of Epidermal growth factor receptor from A431 vulval squamous carcinoma cells
# Chain of Epidermal growth factor receptor (P00533 whole entry): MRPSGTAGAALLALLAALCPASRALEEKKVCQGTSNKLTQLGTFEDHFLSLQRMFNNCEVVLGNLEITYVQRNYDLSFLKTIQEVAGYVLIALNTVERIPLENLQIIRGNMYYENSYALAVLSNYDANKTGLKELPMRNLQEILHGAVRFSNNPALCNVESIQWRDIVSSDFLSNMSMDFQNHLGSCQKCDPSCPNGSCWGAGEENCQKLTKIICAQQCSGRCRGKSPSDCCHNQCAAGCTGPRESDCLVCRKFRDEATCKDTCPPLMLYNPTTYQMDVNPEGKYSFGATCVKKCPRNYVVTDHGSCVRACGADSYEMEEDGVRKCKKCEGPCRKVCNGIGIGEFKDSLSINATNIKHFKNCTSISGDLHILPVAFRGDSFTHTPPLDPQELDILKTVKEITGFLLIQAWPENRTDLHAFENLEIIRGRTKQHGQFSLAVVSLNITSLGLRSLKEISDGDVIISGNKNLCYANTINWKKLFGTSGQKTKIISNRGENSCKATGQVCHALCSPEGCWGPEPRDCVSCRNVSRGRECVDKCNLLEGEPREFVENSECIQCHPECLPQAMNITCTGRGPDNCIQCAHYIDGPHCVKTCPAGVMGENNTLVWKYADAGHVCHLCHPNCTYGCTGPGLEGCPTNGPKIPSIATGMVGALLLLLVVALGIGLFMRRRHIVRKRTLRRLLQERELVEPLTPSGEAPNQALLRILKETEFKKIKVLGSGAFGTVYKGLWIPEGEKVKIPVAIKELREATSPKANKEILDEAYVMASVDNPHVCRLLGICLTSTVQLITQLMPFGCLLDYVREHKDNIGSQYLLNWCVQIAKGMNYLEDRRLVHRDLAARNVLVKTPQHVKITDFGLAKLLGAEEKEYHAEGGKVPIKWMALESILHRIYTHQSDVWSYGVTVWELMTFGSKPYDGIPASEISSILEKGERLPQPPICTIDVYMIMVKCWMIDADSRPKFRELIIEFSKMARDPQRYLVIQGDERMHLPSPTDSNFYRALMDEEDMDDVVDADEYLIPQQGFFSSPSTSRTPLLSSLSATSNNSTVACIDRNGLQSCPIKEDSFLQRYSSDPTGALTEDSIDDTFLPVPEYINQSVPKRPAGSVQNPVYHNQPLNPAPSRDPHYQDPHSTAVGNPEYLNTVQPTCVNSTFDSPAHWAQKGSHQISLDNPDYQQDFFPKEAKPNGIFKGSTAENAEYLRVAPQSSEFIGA
row,SMILES,IC50 [nM]
1,COc1cc2ncnc(N3CCc4ccccc43)c2cc1OC,820
2,COc1cc2ncnc(Nc3cncc4ccccc34)c2cc1OC,6.4
3,COc1cc2ncnc(Nc3nccc4ccccc34)c2cc1OC,200
4,COc1cc2ncnc(Nc3cnc4ccccc4n3)c2cc1OC,780
5,COc1cc2ncnc(NC3CC3c3ccccc3)c2cc1OC (centres undefined),10
6,COc1cc2ncnc(NC3CC3c3ccccc3)c2cc1OCCN1CCOCC1 (centres undefined),300
7,COc1cc2ncnc(NNc3ccc(F)c(Cl)c3)c2cc1OC,430
8,COc1cc2ncnc(NC3CC3c3ccccc3)c2cc1OC(C)=O (centres undefined),84
9,COc1cc2ncnc(Nc3nnc4ccccc4n3)c2cc1OC,820
10,COc1cc2ncnc(NC3CC3c3ccccc3)c2cc1OCCCN(C)C (centres undefined),27
11,COc1cc2ncnc(/N=N/c3ccc(F)c(Cl)c3)c2cc1OC,730
12,COc1cc2ncnc(NCc3cccc(C)c3)c2cc1OC,170
13,COc1cc2ncnc(NC3CC3c3ccccc3)c2cc1O (centres undefined),390
14,COc1cc2ncnc(NC3CCc4ccccc43)c2cc1OC (centres undefined),910
